Drawing on ChEMBL document CHEMBL4251572, “Novel aminopyrimidinyl benzimidazoles as potentially antimicrobial agents: Design, synthesis and biological evaluation” (Eur J Med Chem, 2018), this text covers MBC, MIC and Ratio for six compounds.

Values after ≈ are worked out from the molar mass of the structure shown.

In assay [1] the test system is Staphylococcus aureus. The experiment in a line: Antibacterial activity against methicillin-resistant Staphylococcus aureus N315 incubated for 24 hrs followed by plating onto tryptic soy agar medium and measured after 24 hrs. To be noted: N315, 24 h. Type of assay: functional.
For the next assay, the system named is Pichia norvegensis. Put plainly: Antifungal against Candida mycoderma after 24 hrs by two fold serial dilution method. Type of assay: functional.
Another assay has as its system Bacillus. Put plainly: Antibacterial activity against Bacillus proteus ATCC 13315 after 24 hrs by micro broth dilution assay. To be noted: ATCC 13315, 24 h. Type of assay: functional. (In general: Broth dilution looks for growth in wells or tubes with falling amounts of substance.)
The subject of assay [2] is Staphylococcus aureus. The experiment in a line: Antibacterial activity against Staphylococcus aureus ATCC 25923 incubated for 24 hrs followed by plating onto tryptic soy agar medium and measured after 24 hrs. It counts as functional. The following applies: ATCC 25923, 24 h.
Assay [3] relates to Staphylococcus aureus. The experiment in a line: Ratio of MBC for methicillin-resistant Staphylococcus aureus N315 to MIC for methicillin-resistant Staphylococcus aureus N315. It counts as functional.
For assay [4], the system named is Staphylococcus aureus. Put plainly: Antibacterial activity against Staphylococcus aureus ATCC 25923 after 24 hrs by micro broth dilution assay. Type of assay: functional. To be noted: ATCC 25923, 24 h.
For assay [5], the system named is Pseudomonas aeruginosa. Put plainly: Antibacterial activity against Pseudomonas aeruginosa after 24 hrs by micro broth dilution assay. It counts as functional.
The next assay relates to Saccharomyces cerevisiae. The experiment in a line: Antifungal against Saccharomyces cerevisiae after 24 hrs by two fold serial dilution method. Type of assay: functional.
The next assay concerns Cyberlindnera jadinii. The experiment in a line: Antifungal against Candida utilis after 24 hrs by two fold serial dilution method. It counts as functional. The following applies: Williopsis jadinii.
Assay [6] deals with Staphylococcus aureus. Put plainly: Antibacterial activity against methicillin-resistant Staphylococcus aureus N315 after 24 hrs by micro broth dilution assay. Type of assay: functional. The following applies: N315, 24 h.
Assay [7] has as its system Staphylococcus aureus. The experiment in a line: Ratio of MBC for Staphylococcus aureus ATCC 25923 to MIC for Staphylococcus aureus ATCC 25923. It counts as functional.
For assay [8], the system named is Escherichia coli. Put plainly: Antibacterial activity against Escherichia coli DH52 after 24 hrs by micro broth dilution assay. Type of assay: functional. The following applies: DH52, 24 h.
For another assay, the system named is Aspergillus flavus. Put plainly: Antifungal against Aspergillus flavus after 24 hrs by two fold serial dilution method. Type of assay: functional.
The test system of the next assay is Candida albicans. Put plainly: Antifungal against Candida albicans ATCC 76615 after 24 hrs by two fold serial dilution method. The following applies: ATCC 76615, 24 h. It counts as functional.
Assay [9] deals with Pseudomonas aeruginosa. The experiment in a line: Antibacterial activity against Pseudomonas aeruginosa incubated for 24 hrs followed by plating onto tryptic soy agar medium and measured after 24 hrs. It counts as functional.
The next assay has as its system Bacillus subtilis. Put plainly: Antibacterial activity against Bacillus subtilis after 24 hrs by micro broth dilution assay. Type of assay: functional.
For another assay, the system named is Micrococcus luteus. Put plainly: Antibacterial activity against Micrococcus luteus ATCC4698 after 24 hrs by micro broth dilution assay. It counts as functional. The following applies: ATCC4698, 24 h.
For another assay, the system named is Shigella dysenteriae. Put plainly: Antibacterial activity against Shigella dysenteriae after 24 hrs by micro broth dilution assay. Type of assay: functional.
Assay [10] deals with Escherichia coli. The experiment in a line: Antibacterial activity against Escherichia coli JM109 after 24 hrs by micro broth dilution assay. Type of assay: functional. To be noted: JM109, 24 h.
The test system of the next assay is Salmonella typhi. The experiment in a line: Antibacterial activity against Bacillus typhi after 24 hrs by micro broth dilution assay. Type of assay: functional, Salmonella enterica subsp. enterica serovar Typhi. To be noted: Salmonella enterica.

Broadly, the MBC is the lowest tested concentration that kills the bacteria rather than only halting them. A high value points to less potent killing. Usually MIC stands for the least concentration at which growth counts as inhibited. `CCCCCCn1c(-c2cc(-c3ccc(Cl)cc3)nc(N)n2)nc2ccccc21`: the MBC in the assay on Staphylococcus aureus [1] was 32 µg/mL (≈ 78.8 µM); with Staphylococcus aureus [2], 512 µg/mL (≈ 1260 µM); in the assay with Pseudomonas aeruginosa [9] it was > 512 µg/mL. The MIC against Pichia norvegensis came out at 8 µg/mL (≈ 19.7 µM); in the assay on Bacillus, 256 µg/mL (≈ 631 µM); in the assay on Staphylococcus aureus [4], 256 µg/mL (≈ 631 µM); with Pseudomonas aeruginosa [5] it was 512 µg/mL (≈ 1260 µM); with Saccharomyces cerevisiae, 512 µg/mL (≈ 1260 µM); with Cyberlindnera jadinii, 8 µg/mL (≈ 19.7 µM). Moreover, the MIC worked out at 32 µg/mL (≈ 78.8 µM) in the assay on Staphylococcus aureus [6]; 2 µg/mL (≈ 4.93 µM) against Escherichia coli [8]; 32 µg/mL (≈ 78.8 µM) against Aspergillus flavus; 4 µg/mL (≈ 9.85 µM) against Candida albicans; 128 µg/mL (≈ 315 µM) with Bacillus subtilis; 2 µg/mL (≈ 4.93 µM) in the assay with Micrococcus luteus. The MIC with Shigella dysenteriae was 64 µg/mL (≈ 158 µM); in the assay on Escherichia coli [10] it was 16 µg/mL (≈ 39.4 µM); against Salmonella typhi, 128 µg/mL (≈ 315 µM). Further, the Ratio in the assay with Staphylococcus aureus [3] is 1; in the assay on Staphylococcus aureus [7] it was 2.
Take `CCCCn1c(-c2cc(-c3ccc(C)cc3)nc(N)n2)nc2ccccc21`: the MBC with Staphylococcus aureus [1] is 16 µg/mL (≈ 44.8 µM); in the assay with Staphylococcus aureus [2], 32 µg/mL (≈ 89.5 µM); in the assay with Pseudomonas aeruginosa [9], 16 µg/mL (≈ 44.8 µM). The MIC against Pichia norvegensis worked out at 8 µg/mL (≈ 22.4 µM); against Bacillus, 16 µg/mL (≈ 44.8 µM); in the assay on Staphylococcus aureus [4], 8 µg/mL (≈ 22.4 µM); with Pseudomonas aeruginosa [5] it was 8 µg/mL (≈ 22.4 µM); against Saccharomyces cerevisiae, 32 µg/mL (≈ 89.5 µM); against Cyberlindnera jadinii it was 4 µg/mL (≈ 11.2 µM). Further, the MIC was found to be 16 µg/mL (≈ 44.8 µM) in the assay on Staphylococcus aureus [6]; 32 µg/mL (≈ 89.5 µM) against Escherichia coli [8]; 64 µg/mL (≈ 179 µM) against Aspergillus flavus; 128 µg/mL (≈ 358 µM) against Candida albicans; 16 µg/mL (≈ 44.8 µM) in the assay on Bacillus subtilis; 16 µg/mL (≈ 44.8 µM) in the assay on Micrococcus luteus. Besides, the values for the MIC against Shigella dysenteriae, with Escherichia coli [10] and in the assay on Salmonella typhi were 16 µg/mL (≈ 44.8 µM), 16 µg/mL (≈ 44.8 µM) and 32 µg/mL (≈ 89.5 µM), respectively. The Ratio in the assay on Staphylococcus aureus [3] came to 1; with Staphylococcus aureus [7], 4.
On to `CCCCn1c(-c2cc(-c3ccc(F)cc3)nc(N)n2)nc2ccccc21`, for which the MBC against Staphylococcus aureus [1] was > 512 µg/mL; against Staphylococcus aureus [2] it was 256 µg/mL (≈ 708 µM); in the assay on Pseudomonas aeruginosa [9], > 512 µg/mL. Besides, the MIC turned out to be 8 µg/mL (≈ 22.1 µM) in the assay with Pichia norvegensis; 64 µg/mL (≈ 177 µM) with Bacillus; 128 µg/mL (≈ 354 µM) against Staphylococcus aureus [4]; 512 µg/mL (≈ 1420 µM) in the assay with Pseudomonas aeruginosa [5]; 32 µg/mL (≈ 88.5 µM) in the assay with Saccharomyces cerevisiae; 8 µg/mL (≈ 22.1 µM) with Cyberlindnera jadinii. Also, the MIC with Staphylococcus aureus [6] is 256 µg/mL (≈ 708 µM); in the assay on Escherichia coli [8], 8 µg/mL (≈ 22.1 µM); in the assay with Aspergillus flavus, 512 µg/mL (≈ 1420 µM); in the assay on Candida albicans, 512 µg/mL (≈ 1420 µM); with Bacillus subtilis, 1 µg/mL (≈ 2.77 µM); in the assay on Micrococcus luteus it was 512 µg/mL (≈ 1420 µM). Besides, the MIC worked out at 8 µg/mL (≈ 22.1 µM) in the assay with Shigella dysenteriae, 256 µg/mL (≈ 708 µM) against Escherichia coli [10] and 8 µg/mL (≈ 22.1 µM) in the assay with Salmonella typhi. Moreover, in the assay with Staphylococcus aureus [7], the Ratio is 2.
Regarding `CCCCCCCn1c(-c2cc(-c3ccc(F)cc3)nc(N)n2)nc2ccccc21`, the MIC was determined as 512 µg/mL (≈ 1270 µM) in the assay with Pichia norvegensis; 128 µg/mL (≈ 317 µM) against Bacillus; 512 µg/mL (≈ 1270 µM) with Staphylococcus aureus [4]; 512 µg/mL (≈ 1270 µM) against Pseudomonas aeruginosa [5]; 16 µg/mL (≈ 39.7 µM) in the assay on Saccharomyces cerevisiae; 8 µg/mL (≈ 19.8 µM) against Cyberlindnera jadinii. The MIC was found to be 256 µg/mL (≈ 634 µM) with Staphylococcus aureus [6]; 16 µg/mL (≈ 39.7 µM) against Escherichia coli [8]; 16 µg/mL (≈ 39.7 µM) in the assay with Aspergillus flavus; 16 µg/mL (≈ 39.7 µM) against Candida albicans; 2 µg/mL (≈ 4.96 µM) against Bacillus subtilis; 16 µg/mL (≈ 39.7 µM) in the assay with Micrococcus luteus. The minimum inhibitory concentration (MIC) against Shigella dysenteriae is 512 µg/mL (≈ 1270 µM); against Escherichia coli [10] it was 256 µg/mL (≈ 634 µM); with Salmonella typhi, 16 µg/mL (≈ 39.7 µM).
On to `CCCCCCCCn1c(C(=O)/C=C/c2ccc(Cl)cc2Cl)nc2ccccc21`, for which the MIC with Pichia norvegensis, with Bacillus, in the assay on Staphylococcus aureus [4], with Pseudomonas aeruginosa [5], against Saccharomyces cerevisiae and in the assay with Cyberlindnera jadinii was 512 µg/mL (≈ 1190 µM) in each case. The MIC in the assay with Staphylococcus aureus [6] amounted to 64 µg/mL (≈ 149 µM); with Escherichia coli [8] it was 512 µg/mL (≈ 1190 µM); with Aspergillus flavus it was 512 µg/mL (≈ 1190 µM); with Candida albicans, 512 µg/mL (≈ 1190 µM); with Bacillus subtilis, 512 µg/mL (≈ 1190 µM); in the assay with Micrococcus luteus, 512 µg/mL (≈ 1190 µM). The MIC with Shigella dysenteriae is 512 µg/mL (≈ 1190 µM); in the assay on Escherichia coli [10], 256 µg/mL (≈ 596 µM); in the assay on Salmonella typhi it was 512 µg/mL (≈ 1190 µM).
With `CCCCn1c(C(=O)/C=C/c2ccc(Cl)cc2Cl)nc2ccccc21`, the MIC came out at 128 µg/mL (≈ 343 µM) in the assay on Pichia norvegensis; 512 µg/mL (≈ 1370 µM) in the assay on Bacillus; 512 µg/mL (≈ 1370 µM) in the assay with Staphylococcus aureus [4]; 512 µg/mL (≈ 1370 µM) against Pseudomonas aeruginosa [5]; 16 µg/mL (≈ 42.9 µM) in the assay with Saccharomyces cerevisiae; 512 µg/mL (≈ 1370 µM) in the assay on Cyberlindnera jadinii. Further, the MIC against Staphylococcus aureus [6] is 8 µg/mL (≈ 21.4 µM); in the assay with Escherichia coli [8], 512 µg/mL (≈ 1370 µM); with Aspergillus flavus it was 512 µg/mL (≈ 1370 µM); against Candida albicans, 256 µg/mL (≈ 686 µM); with Bacillus subtilis, 64 µg/mL (≈ 171 µM); against Micrococcus luteus, 512 µg/mL (≈ 1370 µM). Further, the minimal inhibitory concentration (MIC) was found to be 16 µg/mL (≈ 42.9 µM) in the assay on Shigella dysenteriae, 256 µg/mL (≈ 686 µM) in the assay with Escherichia coli [10] and 512 µg/mL (≈ 1370 µM) against Salmonella typhi.
